# Results published in PubChem BioAssay AID1963440 (Molecular Pharmacology Branch, DTP, NCI, 2024).
# System: NCI-H1417 complex spheroids, growth % test/control
# Assay: Anticancer human tumor NCI-H1417 cell line growth inhibition [Asc];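 also: spheroids exposed to compounds for 7 days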;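 as to viability, T/C: 100% = DMSO vehicle control wells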
# Details: for IC50: curve of first compound; for viability, T/C: stronger effect = lower value
# Description: Multicellular complex tumor spheroid response to apoptosis pathway targeting inhibitors Alrizomadlin, Pelcitoclax, and Dasminapant in combination with a variety of drugs and investigational agents in selected tumor cell lines
# The MDM2 inhibitor alrizomadlin, the Bcl-2/Bcl-xL inhibitor pelcitoclax, and the IAPs inhibitor dasminapant were evaluated both individually and in combination with standard of care and investigational anticancer small molecules within a complex spheroid model of solid tumors. . Complex spheroids include a stromal component modeled by human endothelial cells (HUVEC) and fibroblasts modeled by human mesenchymal stem cells (MSCs). The concentration ranges selected for each drug and investigational agent were based upon clinically achievable concentrations if the clinical Cmax of the agent was known.
# Compounds. The drugs and investigational agents: alrizomadlin (APG-115; NSC831270), pelcitoclax (APG-1252; NSC835773), dasminapant (APG-1387;NSC834197), TAK-243 (NSC785004), copanlisib (NSC809693), olaparib (NSC753686), talazoparib (NSC767125), cobimetinib (NSC 768068), eltanexor (KPT-8602, NSC 794443), abemaciclib (NSC 768073), sotorasib (NSC818433), adagrasib (NSC 831453), MRTX-1133 (NSC 836407), Iadademestat (ORY1001, NSC 806812), and RMC-4630 (NSC839698), were obtained from the NCI Developmental Therapeutics Program Chemical Repository. The FDA-approved anticancer drug set is available from the Developmental Therapeutics Program at https://dtp.cancer.gov/organization/dscb/obtaining/available plates.htm. […] The stock solutions were prepared in dimethyl sulfoxide (DMSO, Sigma-Aldrich, St. Louis, MO, cat. D2650) at 800-fold the tested concentration and stored at -70 degrees C prior to their use. All drugs and investigational agents were tested over a range starting from a high concentration at or near the clinical Cmax and decreasing in half-log increments. If the clinical Cmax for an agent had not been determined, the highest concentration tested was 10 microM.
# The patient-derived cancer (PDC) cell lines include five colon adenocarcinomas: 186277-243-T-J2-PDC, 616215-338-R-J1-PDC, 439559-082-T-J2-PDC, 463943-066-T-J2-PDC, and 519858-162-T-J1-PDC; three pancreatic carcinomas: 323965-272-R-J2-PDC, 521955-158-R6-J3-PDC, and 521955-158-R2-J5-PDC; two uterine sarcomas: 327498-152-R-J2-PDC and 993429-296-R-J1-PDC; two rhabdomyosarcomas: 755483-174-R-J1-PDC and 772245-204-R-J1-PDC; two soft tissue sarcomas: 126254-015-R-J1-PDC and 494315-158-R-J1-PDC; two malignant fibrous histiocytomas: 317291-083-R-J1-PDC and 596521-263-R-J1-PDC; two breast carcinomas: 171881-019-R-J1-PDC and 885512-296-R-J2-PDC; and one ovarian carcinoma: 6556581-035-R-J-PDC were obtained from the NCI PDMR, (https://pdmr.cancer.gov). The established cell lines HSSY-2 synovial sarcoma (RRID:CVCL 8719), SYO-1 synovial sarcoma (RRID:CVCL_7146), MPNST malignant peripheral neural sheath tumor were obtained from the Sloan Kettering Institute. The following established cell lines were purchased from the American Type Culture Collection (ATCC, Manassas, VA), Sor the received from the NCI repository:, PANC-1 pancreatic carcinoma (CRL-1469, RRID:CVCL_0480), OVCAR-5 ovarian carcinoma (RRID:CVCL_1628), OVCAR-8 ovarian carcinoma (RRID:CVCL_1629), , MCF-7 breast carcinoma (CRL-12584, RRID:CVCL_0031), MDA-MB-231 breast carcinoma (CRL-12532, RRID:CVCL_0062), NCI-H1876 small cell lung carcinoma (CRL-5902, RRID:CVCL_1503), NCI-H510A small cell lung carcinoma (HTB-184, RRID:CVCL_1565), NCI-H1417 (CRL-5869, RRID:CVCL_1469), and NCI-H196 small cell lung carcinoma (CRL-5823, RRID:CVCL_1509). Dr. Peter Houghton (Greehey Children's Cancer Research Institute, University of Texas Health Science Center, San Antonio, TX) provided Rh-18 rhabdomyosarcoma (RRID:CVCL_1659). Pooled donor human umbilical vein endothelial cells (HUVEC, Lonza, cat. CC-2519) and human mesenchymal stem cells (hMSC, Lonza, cat. PT-2501) were purchased from Lonza (Walkersville, MD).
# Cell Culture. […]
# [1] = second compound 0.03 µM, first compound 0.00316 µM
# [2] = second compound 0.03 µM, first compound 0.01 µM
# [3] = second compound 0.03 µM, first compound 0.0316 µM
# [4] = second compound 0.03 µM, first compound 0.1 µM
# [5] = second compound 0.0949 µM, first compound 0.00316 µM
# [6] = second compound 0.0949 µM, first compound 0.01 µM
# [7] = second compound 0.0949 µM, first compound 0.0316 µM
# [8] = second compound 0.0949 µM, first compound 0.1 µM
# [9] = second compound 0.3 µM, first compound 0.00316 µM
# [10] = second compound 0.3 µM, first compound 0.01 µM
# [11] = second compound 0.3 µM, first compound 0.0316 µM
# [12] = second compound 0.3 µM, first compound 0.1 µM
# [13] = second compound 0.949 µM, first compound 0.00316 µM
# [14] = second compound 0.949 µM, first compound 0.01 µM
# [15] = second compound 0.949 µM, first compound 0.0316 µM
# [16] = second compound 0.949 µM, first compound 0.1 µM
# [17] = second compound 3 µM, first compound 0.00316 µM
# [18] = second compound 3 µM, first compound 0.01 µM
# [19] = second compound 3 µM, first compound 0.0316 µM
# [20] = second compound 3 µM, first compound 0.1 µM
# [21] = second compound 0.03 µM, first compound 0.316 µM
# [22] = second compound 0.03 µM, first compound 1 µM
# [23] = second compound 0.0949 µM, first compound 0.316 µM
# [24] = second compound 0.0949 µM, first compound 1 µM
# [25] = second compound 0.3 µM, first compound 0.316 µM
# [26] = second compound 0.3 µM, first compound 1 µM
# [27] = second compound 0.949 µM, first compound 0.316 µM
# [28] = second compound 0.949 µM, first compound 1 µM
# [29] = second compound 3 µM, first compound 0.316 µM
# [30] = second compound 3 µM, first compound 1 µM
IC50 (second compound 0.03 µM) [nM],IC50 (second compound 0.0949 µM) [nM],IC50 (second compound 0.3 µM) [nM],IC50 (second compound 0.949 µM) [nM],IC50 (second compound 3 µM) [nM],Structure (SMILES),"viability, T/C [1] [%]","viability, T/C [2] [%]","viability, T/C [3] [%]","viability, T/C [4] [%]","viability, T/C [5] [%]","viability, T/C [6] [%]","viability, T/C [7] [%]","viability, T/C [8] [%]","viability, T/C [9] [%]","viability, T/C [11] [%]","viability, T/C [12] [%]","viability, T/C [15] [%]","viability, T/C [16] [%]","viability, T/C [19] [%]","viability, T/C [20] [%]",also measured
36.5,13.9,9.66,12.9,10,Cn1ncnc1[C@H]1c2n[nH]c(=O)c3cc(F)cc(c23)N[C@@H]1c1ccc(F)cc1 + CCN1C(C(=O)NC23CCC(C(=O)O)(CC2)CC3)C(c2cccc(Cl)c2F)C2(C(=O)Nc3cc(Cl)ccc32)C12CCCCC2,87.5,66,52.6,42,90,52.3,49.9,38.1,79.2,43.6,39.9,34.4,34.8,39.6,34.5,"viability, T/C (second compound 0.03 µM, first compound 0.000316 µM): 99.3%; viability, T/C (second compound 0.03 µM, first compound 0.001 µM): 94%; viability, T/C (second compound 0.0949 µM, first compound 0.000316 µM): 91.8%; viability, T/C (second compound 0.0949 µM, first compound 0.001 µM): 91.7%; viability, T/C (second compound 0.3 µM, first compound 0.000316 µM): 94.5%; viability, T/C (second compound 0.3 µM, first compound 0.001 µM): 90.4%; viability, T/C [10]: 48.5%; viability, T/C (second compound 0.949 µM, first compound 0.000316 µM): 83.6%; viability, T/C (second compound 0.949 µM, first compound 0.001 µM): 87.8%; viability, T/C [13]: 75.8%; viability, T/C [14]: 55.1%; viability, T/C (second compound 3 µM, first compound 0.000316 µM): 80%; viability, T/C (second compound 3 µM, first compound 0.001 µM): 80.8%; viability, T/C [17]: 76.3%; viability, T/C [18]: 49.6%"
2860,3970,2690,2960,3210,O=C(c1cc(Cc2n[nH]c(=O)c3ccccc23)ccc1F)N1CCN(C(=O)C2CC2)CC1 + CCN1C(C(=O)NC23CCC(C(=O)O)(CC2)CC3)C(c2cccc(Cl)c2F)C2(C(=O)Nc3cc(Cl)ccc32)C12CCCCC2,,,98.2,96.3,,,101,110,,101,103,95.3,105,94,90.1,"viability, T/C [21]: 107%; viability, T/C [22]: 82.3%; viability, T/C (second compound 0.03 µM, first compound 3.16 µM): 48%; viability, T/C (second compound 0.03 µM, first compound 10 µM): 33.6%; viability, T/C [23]: 88.7%; viability, T/C [24]: 84.8%; viability, T/C (second compound 0.0949 µM, first compound 3.16 µM): 53.6%; viability, T/C (second compound 0.0949 µM, first compound 10 µM): 29.9%; viability, T/C [25]: 98%; viability, T/C [26]: 76.8%; viability, T/C (second compound 0.3 µM, first compound 3.16 µM): 46.1%; viability, T/C (second compound 0.3 µM, first compound 10 µM): 31.2%; viability, T/C [27]: 82.9%; viability, T/C [28]: 76.2%; viability, T/C (second compound 0.949 µM, first compound 3.16 µM): 47.3%; viability, T/C (second compound 0.949 µM, first compound 10 µM): 29.8%; viability, T/C [29]: 95.9%; viability, T/C [30]: 74.8%; viability, T/C (second compound 3 µM, first compound 3.16 µM): 51.5%; viability, T/C (second compound 3 µM, first compound 10 µM): 28.3%"
> 1000,> 1000,> 1000,> 1000,> 1000,O=C(c1ccc(F)c(F)c1Nc1ccc(I)cc1F)N1CC(O)([C@@H]2CCCCN2)C1 + CCN1C(C(=O)NC23CCC(C(=O)O)(CC2)CC3)C(c2cccc(Cl)c2F)C2(C(=O)Nc3cc(Cl)ccc32)C12CCCCC2,85.9,91.6,88.9,85.9,101,89,97.5,84.1,94.6,91.6,89.6,85,87.5,78.5,89,"viability, T/C [21]: 88.2%; viability, T/C [22]: 81.2%; viability, T/C [23]: 88.8%; viability, T/C [24]: 88.8%; viability, T/C [10]: 76.9%; viability, T/C [25]: 85.4%; viability, T/C [26]: 89.5%; viability, T/C [13]: 79.4%; viability, T/C [14]: 87.8%; viability, T/C [27]: 78.8%; viability, T/C [28]: 87.8%; viability, T/C [17]: 86.7%; viability, T/C [18]: 87.5%; viability, T/C [29]: 90.7%; viability, T/C [30]: 77%"
